# Results as given in ChEMBL document CHEMBL1201862, “PubChem BioAssay data set” (2004).
#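 96-well plates; 48 h exposure; 5 concentrations. Endpoints by linear interpolation between flanking doses. Not reached: highest tested concentration assigned. Here, GI50 denotes the concentration required for 50% inhibition of growth.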 The source made the active and inactive calls. Rule as the data show it: active = GI50 up to about 1.1 µM and inactive = higher. Square brackets hold non-standard residues; d marks the D form. Peptide text beside a SMILES is read from it. * marks the point of attachment. NMeV = CN[C@H](C(=O)O)C(C)C; X28 = COc1ccc(CN*)c(OC)c1; Octanoyl = CCCCCCCC(=O)*; dNMeA = CN[C@H](C)C(=O)O
# Legend:
# Test in all cases: DTP human tumour cell line panel, 48 h
# CAKI-1 = tested on: CAKI-1
# K562 = tested on: K562
# HL-60 = tested on: HL-60
# OVCAR-4 = tested on: OVCAR-4
# PC-3 = tested on: PC-3
# MDA-N = tested on: MDA-N
# SK-MEL-28 = tested on: SK-MEL-28
# NCI-H460 = tested on: NCI-H460
# HOP-62 = tested on: HOP-62
# U-251 = tested on: U-251
# 786-0 = tested on: 786-0
# MOLT-4 = tested on: MOLT-4
# SK-MEL-2 = tested on: SK-MEL-2
# HT-29 = tested on: HT-29
# Malme-3M = tested on: Malme-3M
# SNB-75 = tested on: SNB-75
# NCI/ADR-RES = tested on: NCI/ADR-RES
# OVCAR-3 = tested on: OVCAR-3
# BT-549 = tested on: BT-549
Compound,GI50 (CAKI-1),GI50 (K562),GI50 (HL-60),GI50 (OVCAR-4),GI50 (PC-3),GI50 (MDA-N),GI50 (SK-MEL-28),GI50 (NCI-H460),GI50 (HOP-62),GI50 (U-251),GI50 (786-0),GI50 (MOLT-4),GI50 (SK-MEL-2),GI50 (HT-29),GI50 (Malme-3M),GI50 (SNB-75),GI50 (NCI/ADR-RES),GI50 (OVCAR-3),GI50 (BT-549)
CCCCCCCCCCCCCCCC(=O)OCC(O)C1OC(=O)C(O)=C1O (stereo not drawn),43.9 µM (inactive),27.8 µM (inactive),29.5 µM (inactive),52.8 µM (inactive),92 µM (inactive),30.8 µM (inactive),20.4 µM (inactive),> 100 µM (inactive),31.4 µM (inactive),28.1 µM (inactive),19.6 µM (inactive),62.7 µM (inactive),34.1 µM (inactive),12.8 µM (inactive),> 100 µM (inactive),16.1 µM (inactive),29.3 µM (inactive),> 100 µM (inactive),–
CCOC(=O)c1c2c(n(-c3ccc(OC)cc3)c1C)C(=O)C(=O)c1ccccc1-2,1.42 µM (inactive),0.488 µM (active),0.0261 µM (active),0.624 µM (active),2.18 µM (inactive),–,2.12 µM (inactive),1.43 µM (inactive),1.78 µM (inactive),1.22 µM (inactive),1.87 µM (inactive),–,3.27 µM (inactive),2.34 µM (inactive),0.241 µM (active),2.16 µM (inactive),0.869 µM (active),0.419 µM (active),2.02 µM (inactive)
O=C1CSC(c2ccc(Cl)cc2)N1c1ccc(-n2c(-c3ccccc3)nc3ccccc3c2=O)cc1 (stereo not drawn),> 100 µM (inactive),36.8 µM (inactive),–,12.9 µM (inactive),53.8 µM (inactive),> 100 µM (inactive),> 100 µM (inactive),36.5 µM (inactive),> 100 µM (inactive),88.5 µM (inactive),87.1 µM (inactive),21.2 µM (inactive),> 100 µM (inactive),84.7 µM (inactive),48.9 µM (inactive),7.64 µM (inactive),23.8 µM (inactive),> 100 µM (inactive),> 100 µM (inactive)
CC(C)(C)/C(O)=C\c1nc2cc(F)c(F)cc2[nH]c1=O,> 100 µM (inactive),> 100 µM (inactive),> 100 µM (inactive),> 100 µM (inactive),> 100 µM (inactive),–,> 100 µM (inactive),> 100 µM (inactive),> 100 µM (inactive),> 100 µM (inactive),> 100 µM (inactive),48.4 µM (inactive),> 100 µM (inactive),> 100 µM (inactive),–,> 100 µM (inactive),> 100 µM (inactive),–,> 100 µM (inactive)
CCOC(=O)c1sc2c(c1OC(=O)c1ccc(Cl)cc1Cl)c(=O)n(-c1ccccc1)c(=S)n2-c1ccccc1,17.9 µM (inactive),3.75 µM (inactive),4.29 µM (inactive),40.6 µM (inactive),7.08 µM (inactive),22 µM (inactive),> 76.4 µM (inactive),5.24 µM (inactive),10 µM (inactive),5.21 µM (inactive),25.6 µM (inactive),3.17 µM (inactive),3.97 µM (inactive),8.89 µM (inactive),22.9 µM (inactive),7.01 µM (inactive),9.66 µM (inactive),21 µM (inactive),–
CN1CCN(c2ccc3[nH]c(-c4ccc5[nH]c(CCCc6ccc(N(CCCl)CCCl)cc6)nc5c4)nc3c2)CC1,> 100 µM (inactive),> 100 µM (inactive),62.8 µM (inactive),> 100 µM (inactive),> 100 µM (inactive),> 100 µM (inactive),> 100 µM (inactive),> 100 µM (inactive),> 100 µM (inactive),> 100 µM (inactive),> 100 µM (inactive),77.8 µM (inactive),> 100 µM (inactive),41.7 µM (inactive),> 100 µM (inactive),> 100 µM (inactive),> 100 µM (inactive),–,–
O=C(O)C12CCC(CC1=O)C2 (stereo not drawn),> 100 µM (inactive),> 100 µM (inactive),> 100 µM (inactive),> 100 µM (inactive),> 100 µM (inactive),–,> 100 µM (inactive),> 100 µM (inactive),> 100 µM (inactive),> 100 µM (inactive),> 100 µM (inactive),> 100 µM (inactive),> 100 µM (inactive),> 100 µM (inactive),> 100 µM (inactive),> 100 µM (inactive),> 100 µM (inactive),> 100 µM (inactive),> 100 µM (inactive)
Cc1nc2c(Cl)cc(Cl)cc2c2c1CCO2,23.3 µM (inactive),> 100 µM (inactive),65.3 µM (inactive),> 100 µM (inactive),–,> 100 µM (inactive),> 100 µM (inactive),> 100 µM (inactive),–,> 100 µM (inactive),> 100 µM (inactive),75.3 µM (inactive),> 100 µM (inactive),> 100 µM (inactive),> 100 µM (inactive),60.8 µM (inactive),> 100 µM (inactive),–,> 100 µM (inactive)
Cc1ccc([N+](=O)[O-])c2c(NCCNC(=O)Cn3ccnc3[N+](=O)[O-])ccnc12,31.8 µM (inactive),64.1 µM (inactive),> 100 µM (inactive),33.3 µM (inactive),28.8 µM (inactive),69.5 µM (inactive),57.7 µM (inactive),28.2 µM (inactive),20.7 µM (inactive),36.6 µM (inactive),34.8 µM (inactive),> 100 µM (inactive),43.6 µM (inactive),32.4 µM (inactive),28.6 µM (inactive),> 100 µM (inactive),> 100 µM (inactive),23.2 µM (inactive),–
O=C1OC(c2ccccc2)=N/C1=C\c1ccc(Br)cc1,> 100 µM (inactive),> 100 µM (inactive),> 100 µM (inactive),> 100 µM (inactive),> 100 µM (inactive),> 100 µM (inactive),> 100 µM (inactive),> 100 µM (inactive),> 100 µM (inactive),> 100 µM (inactive),> 100 µM (inactive),94 µM (inactive),> 100 µM (inactive),> 100 µM (inactive),74.8 µM (inactive),> 100 µM (inactive),–,> 100 µM (inactive),> 100 µM (inactive)
O=C(c1cc(Cl)ccc1Cl)N1CCN(c2ccc(Cl)c(Cl)c2)CC1,35.8 µM (inactive),18.1 µM (inactive),76.9 µM (inactive),51.5 µM (inactive),42.8 µM (inactive),38.1 µM (inactive),39.6 µM (inactive),17 µM (inactive),67.5 µM (inactive),27.2 µM (inactive),19.7 µM (inactive),20.6 µM (inactive),–,22.8 µM (inactive),17.9 µM (inactive),31.1 µM (inactive),–,31.4 µM (inactive),25.2 µM (inactive)
CC(C)C(C/C=C1\CC(CO)(COC(=O)C2CCCCC2)OC1=O)C(C)C (stereo not drawn),18.7 µM (inactive),6.25 µM (inactive),–,18 µM (inactive),18.2 µM (inactive),24.1 µM (inactive),16.6 µM (inactive),24.4 µM (inactive),13.2 µM (inactive),19 µM (inactive),13.7 µM (inactive),6.87 µM (inactive),> 100 µM (inactive),30.6 µM (inactive),16.2 µM (inactive),12.9 µM (inactive),20.7 µM (inactive),20 µM (inactive),23.7 µM (inactive)
CCCCCCCC(=O)N[C@H](C(=O)N[C@H](C(=O)N(C)[C@H](C(=O)N1CCC[C@H]1C(=O)N(C)[C@H](C)C(=O)NCc1ccc(OC)cc1OC)C(C)C)C(C)C)C(C)C (Octanoyl-VV[NMeV]P[dNMeA]-X28),16.4 µM (inactive),5.62 µM (inactive),3.68 µM (inactive),6.14 µM (inactive),7.01 µM (inactive),–,8.77 µM (inactive),8.34 µM (inactive),20.4 µM (inactive),4.79 µM (inactive),23.2 µM (inactive),14.2 µM (inactive),12.9 µM (inactive),4.23 µM (inactive),8.17 µM (inactive),21.3 µM (inactive),42.1 µM (inactive),4.2 µM (inactive),11.8 µM (inactive)
O=C1C(CO)=C[C@@H](O)[C@H]2O[C@@H]12 [EPOXYDON],> 100 µM (inactive),> 100 µM (inactive),26 µM (inactive),17.7 µM (inactive),–,> 100 µM (inactive),> 100 µM (inactive),53.1 µM (inactive),> 100 µM (inactive),61.5 µM (inactive),39.8 µM (inactive),> 100 µM (inactive),> 100 µM (inactive),> 100 µM (inactive),> 100 µM (inactive),37.4 µM (inactive),75.5 µM (inactive),> 100 µM (inactive),98.9 µM (inactive)
COc1ccc(/C=C/c2cc(OC)cc(=O)o2)cc1 [YANGONIN],> 100 µM (inactive),63.1 µM (inactive),> 100 µM (inactive),> 100 µM (inactive),> 100 µM (inactive),91.6 µM (inactive),> 100 µM (inactive),> 100 µM (inactive),40 µM (inactive),27.1 µM (inactive),36.1 µM (inactive),> 100 µM (inactive),72.1 µM (inactive),> 100 µM (inactive),> 100 µM (inactive),20 µM (inactive),> 100 µM (inactive),> 100 µM (inactive),–
